Results published in EP0666847B1 (priority 1993, dated 1995).
Where a name gives a salt, the structure may show the parent alone.

Key:
[1] = target: T1, 5-HT1Dβ receptor (Homo sapiens, UniProt P28222); test: biochemical; assay type: binding; details: for Ki: 3H-5HT, membranes of recombinant cells, 15 minute incubation at 37°C; for 5-HT1Dβ/5HT1A: selectivity ratio, 5-HT1A binding with 3H-8-OH-DPAT, 5-HT1Dβ with 3H-5HT
T1 construct: expressed in transfected cells
Experimental: Increasing levels of the test compound were incubated with the radioligand and the membrane homogenates prepared from the recombinant cells. After a 15 minute incubation at 37°C, the incubation was terminated by vacuum filtration. The filters were washed with buffer and the filters were counted for radioactivity using liquid scintillation spectrometry.

[2] = target: T1, 5-HT1Dβ receptor; test: Inhibition of forskolin-stimulated adenylate cyclase (cAMP radioimmunoassay) in 5-HT1Dβ-presenting CHO cells; assay type: cell-based
Experimental: CAMP levels were determined using a radioimmunoassay kit containing antibody specific for cAMP and radioiodinated cAMP. The amount of the compound that inhibited 50% of the forskolin-stimulated adenylate cyclase activity was determined from the inhibition curve data subjected to computer assisted analysis (Figure 1).

T1 sequence (P28222 whole entry): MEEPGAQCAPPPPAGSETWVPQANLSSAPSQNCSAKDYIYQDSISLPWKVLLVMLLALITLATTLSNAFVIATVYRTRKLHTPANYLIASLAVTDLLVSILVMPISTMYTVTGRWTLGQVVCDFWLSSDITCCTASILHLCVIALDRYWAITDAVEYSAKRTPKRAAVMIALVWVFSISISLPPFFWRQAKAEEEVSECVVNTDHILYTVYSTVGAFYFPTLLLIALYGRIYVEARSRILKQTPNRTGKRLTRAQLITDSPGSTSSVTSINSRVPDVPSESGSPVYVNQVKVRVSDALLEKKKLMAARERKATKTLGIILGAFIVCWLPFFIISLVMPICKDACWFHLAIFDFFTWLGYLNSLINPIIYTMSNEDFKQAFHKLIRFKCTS

Structure (SMILES) | Ki [1] [nM] | 5-HT1Dβ/5HT1A [1] | EC50 [2] [nM] | inhibition at 0.001 µM ([2]; CHO, read-out: % Inhib. cAMP) [%] | inhibition at 0.01 µM ([2]; CHO, read-out: % Inhib. cAMP) [%] | inhibition at 0.1 µM ([2]; CHO, read-out: % Inhib. cAMP) [%] | inhibition at 1 µM ([2]; CHO, read-out: % Inhib. cAMP) [%]
CCCCOCCCCOc1ccc2[nH]cc(CCN)c2c1 [Example 9, 3-(2-aminoethyl)-5-(4-butyloxybutyloxy)-indole hydrochoride] | 2.5 | 30 |  |  |  |  | 
Cl.NCCc1c[nH]c2ccc(OCCCCCCCCO)cc12 [Example 5, 3-(2-aminoethyl)-5-(8-hydroxyoctyloxy)-indole hydrochloride] | 0.3 | 119 | 200 | 0 | 11 | 33 | 92
CCCCCCCCCOc1ccc2[nH]cc(CCN)c2c1 [Example 4, 3-(2-aminoethyl)-5-nonyloxyindole oxalate] |  | 260 |  |  |  |  | 
CCOCCCCCCOc1ccc2[nH]cc(CCN)c2c1 [Example 8, 3-(2-aminoethyl)-5-(6-ethyloxyhexyloxy)-indole hydrochloride] | 0.4 | 180 |  |  |  |  | 
